We go through 1 compound from US20260176285A1, “SALT OF DIOXANE QUINOLINE COMPOUND, CRYSTAL FORM THEREOF, PREPARATION METHODS THEREFOR AND USES THEREOF” (Beijing Scitech-MQ Pharmaceuticals Limited, priority 2022, published 2026).

Structures are written as SMILES.

Data set [1] can be described thus: Equilibrium solubility in water. It is filed as physicochemical. To be noted: H2O, room temperature, 24 hours; listed as p-Toluenesulfonate salt crystal form A-II. Here is the method:
The sample was centrifuged and filtered, and the filtrate was tested by HPLC.

The nature of data set [2]: Long-term stability study. It counts as physicochemical. The procedure: p-Toluenesulfonate salt crystal form A-II of the compound of formula (I) was placed at 25° C./60% RH for 6 months to investigate its long-term stability.
The target of another data set is T1, AXL (Homo sapiens, UniProt P30530).
T1 construct: purchased Carna 08-107
T1 sequence (P30530 26-894): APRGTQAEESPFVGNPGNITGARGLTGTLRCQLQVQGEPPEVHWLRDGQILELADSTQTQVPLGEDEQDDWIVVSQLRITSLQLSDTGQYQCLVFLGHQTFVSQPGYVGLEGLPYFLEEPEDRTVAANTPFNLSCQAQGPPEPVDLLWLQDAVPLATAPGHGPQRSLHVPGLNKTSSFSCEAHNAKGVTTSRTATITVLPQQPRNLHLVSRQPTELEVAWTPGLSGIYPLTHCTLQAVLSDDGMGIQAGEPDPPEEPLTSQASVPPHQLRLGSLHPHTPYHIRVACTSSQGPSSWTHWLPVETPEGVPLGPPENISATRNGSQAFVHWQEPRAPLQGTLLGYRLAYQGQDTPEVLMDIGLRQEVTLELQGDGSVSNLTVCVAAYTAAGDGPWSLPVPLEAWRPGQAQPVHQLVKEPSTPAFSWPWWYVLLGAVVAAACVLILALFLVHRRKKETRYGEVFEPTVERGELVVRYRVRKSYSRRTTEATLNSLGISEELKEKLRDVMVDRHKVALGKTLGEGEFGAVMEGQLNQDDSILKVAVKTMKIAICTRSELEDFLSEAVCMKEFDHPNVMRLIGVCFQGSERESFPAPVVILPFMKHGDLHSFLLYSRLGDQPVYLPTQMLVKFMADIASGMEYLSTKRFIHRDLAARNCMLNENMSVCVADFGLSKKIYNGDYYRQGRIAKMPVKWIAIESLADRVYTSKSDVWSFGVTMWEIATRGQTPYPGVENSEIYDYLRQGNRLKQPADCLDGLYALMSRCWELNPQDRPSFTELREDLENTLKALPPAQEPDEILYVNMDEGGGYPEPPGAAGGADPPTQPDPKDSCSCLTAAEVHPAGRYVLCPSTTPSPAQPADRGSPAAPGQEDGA
Description: Kinase activity, Mobility Shift Assay. It is filed as biochemical. Here is the method:
(§1) The assay used the Mobility Shift Assay method. The starting concentration of the test substance was 2.5 μM, which was serially diluted 3-fold to give a total of 10 concentrations, in duplicate.
(§2) The p-toluenesulfonate salt of the free compound prepared in Example 2 was used as the test compound. The starting concentration of the test was 2.5 μM, and the concentration was prepared to 50 times, that is, 125 μM. 158 μl of 100% DMSO was added to the second well of a 96-well plate, and then 2 μl of 10 mM compound solution was added to prepare a 125 μM compound solution. 60 μl of 100% DMSO was added to the other wells. 30 μl of the compound was taken out from the second well and added to the third well, and the 3-fold dilution was made successively to give a total of 10 dilutions. Dilution instrument: automatic microwell pipette (Precision PRC384U)
(§3) • (1) 10 μl was taken out from each well of the 96-well plate with 50-fold compound concentration and transferred to another 96-well plate. 90 μl of kinase buffer was added to prepare a 5-fold compound concentration. • (2) 5 μl was taken out from the 96-well plate with 5-fold compound concentration and transferred to a 384-well reaction plate. For example, the compound in well A1 of the 96-well plate was transferred to wells A1 and A2 of the 384-well plate, the compound in well A2 of the 96-well plate was transferred to wells A3 and A4 of the 384-well plate, and so on.
(§4) Kinase was added to 1× kinase buffer to make a 2.5 times enzyme solution.
(§5) • (1) 5 μl of 5× compound dissolved in 10% DMSO was already in the 384-well reaction plate. • (2) 10 μl of 2.5× enzyme solution was added to the 384-well reaction plate and 10 μl of kinase buffer was added to the negative control wells. • (3) Incubation at room temperature for 10 minutes.
(§6) FAM-labeled peptide and ATP (ATP concentration see Appendix) were added to 1× kinase buffer to form a 2.5× substrate solution.
(§7) 10 μl of 2.5× substrate solution was added to the 384-well reaction plate and centrifuged at 1000 rpm for 1 minute.
(§8) • (1) The plate was incubated at 28° C. for 60 minutes (Biochemical incubator model: SPX-100B-Z). • (2) 30 μl of stop solution was added to the 384-well reaction plate to terminate the reaction and centrifuged at 1000 rpm for 1 minute.
(§9) The data of conversion rate was read on Caliper EZ Reader II.
(§10) • 1) The conversion rate data was copied from Caliper EZ Reader II. • 2) The conversion rate was converted to inhibition rate data, where max refers to the conversion rate of the DMSO control and min refers to the conversion rate of the no enzyme activity control.
(§11) [formula] • 3) Fitting of IC50 values using XLFit excel add-in version 5.4.0.8

Another data set has as its target T2, KDR(VEGFR2) (Homo sapiens, UniProt P35968).
T2 construct: purchased Carna 08-191
Kind of data set: Kinase activity, Mobility Shift Assay. It counts as biochemical. Here is the method: as §1, §2, §3, §4, §5, §6, §7, §8, §9, §10, §11

In another data set the target is T3, KIT (Homo sapiens, UniProt P10721).
T3 construct: purchased eurofins 14-559M
Description: Kinase activity, Mobility Shift Assay. It counts as biochemical. The procedure:
as §1, §2, §3, §4, §5, §6, §7, §8, §9, §10, §11

The next data set deals with T4, MET (Homo sapiens, UniProt P08581).
T4 construct: purchased Carna 08-151
Kind of data set: Kinase activity, Mobility Shift Assay. It counts as biochemical. Here is the method: as §1, §2, §3, §4, §5, §6, §7, §8, §9, §10, §11

The target of the next data set is T5, PDGFRa (Homo sapiens, UniProt P16234).
T5 construct: purchased BPS 40260
Description: Kinase activity, Mobility Shift Assay. It is filed as biochemical. Here is the method:
as §1, §2, §3, §4, §5, §6, §7, §8, §9, §10, §11

In the next data set the target is T6, RET (Homo sapiens, UniProt P07949).
T6 construct: purchased Carna 08-159
Description: Kinase activity, Mobility Shift Assay. It counts as biochemical. The procedure: as §1, §2, §3, §4, §5, §6, §7, §8, §9, §10, §11

The next data set has as its target T7, TRK-A (Homo sapiens, UniProt P04629).
T7 construct: purchased Carna 08-186
Description: Kinase activity, Mobility Shift Assay. It counts as biochemical. Here is the method: as §1, §2, §3, §4, §5, §6, §7, §8, §9, §10, §11

The target of another data set is T8, TRK-B (Homo sapiens, UniProt Q16620).
T8 construct: purchased Carna 08-187
Description: Kinase activity, Mobility Shift Assay. It counts as biochemical. The procedure: as §1, §2, §3, §4, §5, §6, §7, §8, §9, §10, §11

Where [3] appears, read: 25° C./60% RH, simulating factory packaging, 3 months.
Setting [4] is: 25° C./60% RH, simulating factory packaging, 6 months.

T6 sequence (P07949 29-1114): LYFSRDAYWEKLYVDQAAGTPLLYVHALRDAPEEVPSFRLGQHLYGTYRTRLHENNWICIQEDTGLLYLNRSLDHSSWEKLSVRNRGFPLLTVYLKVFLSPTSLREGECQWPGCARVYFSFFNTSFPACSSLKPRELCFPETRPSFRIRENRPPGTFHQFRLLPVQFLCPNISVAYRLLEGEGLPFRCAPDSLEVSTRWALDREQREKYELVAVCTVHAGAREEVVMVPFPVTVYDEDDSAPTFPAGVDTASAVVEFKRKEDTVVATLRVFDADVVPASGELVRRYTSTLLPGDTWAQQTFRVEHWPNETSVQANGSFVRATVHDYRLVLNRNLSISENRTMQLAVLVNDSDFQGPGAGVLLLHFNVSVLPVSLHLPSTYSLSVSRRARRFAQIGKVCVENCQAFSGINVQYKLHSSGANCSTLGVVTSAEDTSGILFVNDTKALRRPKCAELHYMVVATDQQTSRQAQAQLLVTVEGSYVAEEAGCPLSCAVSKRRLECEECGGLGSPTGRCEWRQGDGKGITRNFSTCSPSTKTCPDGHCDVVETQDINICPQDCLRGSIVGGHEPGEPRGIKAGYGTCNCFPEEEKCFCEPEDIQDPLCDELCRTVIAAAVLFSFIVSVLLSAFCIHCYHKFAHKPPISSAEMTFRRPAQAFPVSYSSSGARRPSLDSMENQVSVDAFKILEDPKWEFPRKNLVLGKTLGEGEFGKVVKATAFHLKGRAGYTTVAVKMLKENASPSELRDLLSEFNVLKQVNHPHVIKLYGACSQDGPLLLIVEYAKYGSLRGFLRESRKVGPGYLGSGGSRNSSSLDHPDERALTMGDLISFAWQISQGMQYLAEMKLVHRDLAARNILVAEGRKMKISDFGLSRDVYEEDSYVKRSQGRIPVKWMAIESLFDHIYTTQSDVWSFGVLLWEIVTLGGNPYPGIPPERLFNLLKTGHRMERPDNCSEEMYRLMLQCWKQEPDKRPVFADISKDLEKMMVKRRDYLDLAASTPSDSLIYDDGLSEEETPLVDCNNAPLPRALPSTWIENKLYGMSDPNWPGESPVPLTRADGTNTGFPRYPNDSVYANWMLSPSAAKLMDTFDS
T7 sequence (P04629 33-796): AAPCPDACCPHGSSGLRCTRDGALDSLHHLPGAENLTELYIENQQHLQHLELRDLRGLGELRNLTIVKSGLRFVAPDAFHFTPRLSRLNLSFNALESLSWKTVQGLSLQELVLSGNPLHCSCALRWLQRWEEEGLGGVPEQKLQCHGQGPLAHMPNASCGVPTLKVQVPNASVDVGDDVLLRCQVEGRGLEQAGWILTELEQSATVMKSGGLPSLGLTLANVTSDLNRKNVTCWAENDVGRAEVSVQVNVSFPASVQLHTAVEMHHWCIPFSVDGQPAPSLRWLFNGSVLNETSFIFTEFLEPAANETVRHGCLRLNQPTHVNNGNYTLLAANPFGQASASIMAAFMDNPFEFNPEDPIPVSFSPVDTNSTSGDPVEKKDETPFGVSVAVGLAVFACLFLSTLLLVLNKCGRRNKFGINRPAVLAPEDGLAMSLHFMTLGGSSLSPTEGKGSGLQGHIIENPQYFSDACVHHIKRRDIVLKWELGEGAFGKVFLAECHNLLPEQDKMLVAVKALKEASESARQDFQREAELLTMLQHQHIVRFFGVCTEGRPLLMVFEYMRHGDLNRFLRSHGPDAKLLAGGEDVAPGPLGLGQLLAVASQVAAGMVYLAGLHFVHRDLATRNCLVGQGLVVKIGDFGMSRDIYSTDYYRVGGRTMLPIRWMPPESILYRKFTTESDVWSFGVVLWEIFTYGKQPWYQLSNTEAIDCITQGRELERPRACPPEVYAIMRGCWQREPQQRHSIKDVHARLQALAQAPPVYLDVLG
T8 sequence (Q16620 32-822): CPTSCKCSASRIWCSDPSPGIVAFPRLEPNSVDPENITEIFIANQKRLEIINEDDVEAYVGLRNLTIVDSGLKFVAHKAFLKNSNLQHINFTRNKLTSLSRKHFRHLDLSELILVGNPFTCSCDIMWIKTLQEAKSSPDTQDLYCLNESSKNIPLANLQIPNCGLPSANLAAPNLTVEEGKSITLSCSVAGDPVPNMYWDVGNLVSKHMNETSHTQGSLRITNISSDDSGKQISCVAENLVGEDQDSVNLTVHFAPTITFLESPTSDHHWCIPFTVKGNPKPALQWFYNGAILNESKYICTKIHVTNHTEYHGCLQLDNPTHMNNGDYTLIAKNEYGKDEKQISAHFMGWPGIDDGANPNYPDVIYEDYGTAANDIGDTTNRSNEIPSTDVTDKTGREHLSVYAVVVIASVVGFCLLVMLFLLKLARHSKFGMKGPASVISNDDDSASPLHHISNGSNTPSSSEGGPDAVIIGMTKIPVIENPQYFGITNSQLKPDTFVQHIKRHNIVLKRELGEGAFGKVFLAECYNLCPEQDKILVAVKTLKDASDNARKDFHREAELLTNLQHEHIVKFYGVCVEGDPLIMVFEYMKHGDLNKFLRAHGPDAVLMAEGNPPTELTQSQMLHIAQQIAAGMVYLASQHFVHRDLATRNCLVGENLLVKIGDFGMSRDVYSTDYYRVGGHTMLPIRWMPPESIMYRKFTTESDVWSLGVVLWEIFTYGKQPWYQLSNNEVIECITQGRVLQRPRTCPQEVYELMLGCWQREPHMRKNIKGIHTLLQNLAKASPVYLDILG
T3 sequence (P10721 26-976): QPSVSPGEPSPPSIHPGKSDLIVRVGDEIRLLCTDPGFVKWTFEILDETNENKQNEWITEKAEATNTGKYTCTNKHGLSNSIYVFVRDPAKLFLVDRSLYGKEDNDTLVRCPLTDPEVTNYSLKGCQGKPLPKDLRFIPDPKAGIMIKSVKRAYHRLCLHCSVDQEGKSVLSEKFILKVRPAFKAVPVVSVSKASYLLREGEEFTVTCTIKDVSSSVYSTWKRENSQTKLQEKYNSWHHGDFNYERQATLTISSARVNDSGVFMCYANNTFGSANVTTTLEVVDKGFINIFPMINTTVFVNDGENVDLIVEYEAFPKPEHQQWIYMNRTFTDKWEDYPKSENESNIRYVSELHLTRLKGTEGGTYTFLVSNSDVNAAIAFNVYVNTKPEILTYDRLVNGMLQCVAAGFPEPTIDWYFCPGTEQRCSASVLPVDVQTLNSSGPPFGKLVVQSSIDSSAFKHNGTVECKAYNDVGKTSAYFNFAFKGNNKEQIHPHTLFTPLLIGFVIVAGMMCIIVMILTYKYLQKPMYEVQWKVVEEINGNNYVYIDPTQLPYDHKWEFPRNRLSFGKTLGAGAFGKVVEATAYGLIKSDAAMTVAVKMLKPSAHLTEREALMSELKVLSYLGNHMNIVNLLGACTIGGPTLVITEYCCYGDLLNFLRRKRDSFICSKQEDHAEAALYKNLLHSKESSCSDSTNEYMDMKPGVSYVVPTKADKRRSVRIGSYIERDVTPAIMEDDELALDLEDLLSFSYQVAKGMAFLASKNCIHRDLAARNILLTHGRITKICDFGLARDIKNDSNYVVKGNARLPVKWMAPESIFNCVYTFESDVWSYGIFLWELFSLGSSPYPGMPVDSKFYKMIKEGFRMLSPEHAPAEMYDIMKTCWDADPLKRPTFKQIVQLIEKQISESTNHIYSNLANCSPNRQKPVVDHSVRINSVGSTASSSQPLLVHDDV
T2 sequence (P35968 20-1356): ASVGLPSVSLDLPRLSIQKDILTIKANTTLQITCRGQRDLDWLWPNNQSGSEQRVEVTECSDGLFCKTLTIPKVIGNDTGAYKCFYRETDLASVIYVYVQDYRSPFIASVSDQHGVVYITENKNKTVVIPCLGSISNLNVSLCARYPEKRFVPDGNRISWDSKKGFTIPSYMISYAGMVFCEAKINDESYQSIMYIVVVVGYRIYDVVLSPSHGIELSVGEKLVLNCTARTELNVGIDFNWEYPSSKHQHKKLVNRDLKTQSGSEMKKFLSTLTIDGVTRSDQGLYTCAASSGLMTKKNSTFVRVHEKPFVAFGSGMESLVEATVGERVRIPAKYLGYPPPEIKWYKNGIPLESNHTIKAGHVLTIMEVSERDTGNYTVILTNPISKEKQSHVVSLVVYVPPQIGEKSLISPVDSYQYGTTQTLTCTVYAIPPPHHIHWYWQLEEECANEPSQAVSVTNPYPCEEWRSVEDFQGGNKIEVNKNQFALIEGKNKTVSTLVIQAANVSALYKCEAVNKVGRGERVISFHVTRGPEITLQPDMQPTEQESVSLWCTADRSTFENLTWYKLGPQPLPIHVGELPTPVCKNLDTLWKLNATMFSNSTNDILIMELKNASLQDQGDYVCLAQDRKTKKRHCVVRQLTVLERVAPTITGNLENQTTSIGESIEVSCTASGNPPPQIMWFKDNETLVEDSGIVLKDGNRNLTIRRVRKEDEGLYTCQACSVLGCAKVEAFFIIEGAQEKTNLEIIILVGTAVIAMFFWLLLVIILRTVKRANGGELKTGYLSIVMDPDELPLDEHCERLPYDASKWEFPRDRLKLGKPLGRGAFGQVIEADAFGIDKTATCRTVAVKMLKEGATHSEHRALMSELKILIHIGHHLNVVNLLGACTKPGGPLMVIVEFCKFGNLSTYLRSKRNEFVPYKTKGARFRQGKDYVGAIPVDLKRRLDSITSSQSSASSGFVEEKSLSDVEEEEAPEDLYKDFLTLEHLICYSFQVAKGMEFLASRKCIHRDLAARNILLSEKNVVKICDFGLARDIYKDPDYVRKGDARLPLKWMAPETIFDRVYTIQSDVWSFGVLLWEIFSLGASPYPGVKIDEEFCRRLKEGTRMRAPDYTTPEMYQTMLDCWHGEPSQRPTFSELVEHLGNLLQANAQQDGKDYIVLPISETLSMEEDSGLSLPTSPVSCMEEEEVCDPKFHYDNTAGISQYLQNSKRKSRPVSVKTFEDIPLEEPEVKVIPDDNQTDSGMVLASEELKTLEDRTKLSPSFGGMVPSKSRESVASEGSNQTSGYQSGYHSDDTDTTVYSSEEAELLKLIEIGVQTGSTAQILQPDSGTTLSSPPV

Regarding `O=C(Nc1ccc(F)cc1)C1(C(=O)Nc2ccc(Oc3ccnc4cc(OCCCN5CCOCC5)c5c(c34)OCCO5)c(F)c2)CC1` [Example 2, N-(3-fluoro-4-((5-(3-morpholinopropoxy)-2,3-dihydro-[1,4]dioxano[2,3-f]quinolin-10-yl)oxy)phenyl)-N-(4-fluorophenyl)cyclopropane-1,1-dicarboxamide], in data set [1], the “Solubility (equilibrium)” value turned out to be 5100 µg/mL. For the same compound, in data set [2] (setting [3]), the Appearance entry is on record as “Off-white”, the Content is reported as 100.0%, the Crystal form entry is “No” and the Moisture is reported as 0.31%. The compound also showed a Total impurities in data set [2] (setting [3]) of 0.38%. For the same compound, in data set [2] (setting [4]), the Appearance result is given as “Off-white”, the Content is listed as 100.5%, the Crystal form result is reported as “No” and the Moisture is 0.59%. In data set [2] (setting [4]), this compound returned a Total impurities of 0.36%. Further, in [2] (Day 0), the Appearance result is recorded as “Off-white”, the Content is reported as 100.2%, the Crystal form result was “No” and the Moisture was found to be 0.53%. The Total impurities in [2] (Day 0) was found to be 0.37%. Besides, the “inhibition of the activity of AXL (in words)” value at AXL is “effectively inhibit”. Besides, the “inhibition of the activity of VEGFR-2 (in words)” value on KDR(VEGFR2) is listed as “effectively inhibit”. For the same compound, the “inhibition of the activity of c-KIT (in words)” value on KIT was “effectively inhibit”. The “inhibition of the activity of c-MET (in words)” value on MET was “effectively inhibit”. In addition, the “inhibition of the activity of PDGFRa (in words)” value on PDGFRa is listed as “effectively inhibit”. In addition, at RET, the “inhibition of the activity of RET (in words)” value is listed as “effectively inhibit”. Besides, the “inhibition of the activity of TRK-A (in words)” value at TRK-A is given as “effectively inhibit”. Further, the “inhibition of the activity of TRK-B (in words)” value on TRK-B is given as “effectively inhibit”.
